In PubChem BioAssay AID248 (DTP/NCI, 2004):
“And” between values parts separate entries of the source, which are not always exact repeats. Equal values may be shown once. Inconclusive results and toxic doses are left out.

Tested on: L1210 leukemia ip in BDF1 mice, survival T/C
Assay: NCI In Vivo Anticancer Drug Screen. Data for tumor model L1210 Leukemia (intraperitoneal) in B6D2F1 (BDF1) mice
Conditions: endpoint: mean survival time, higher = longer survival
In short: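 Mice bearing the transplanted tumor received compound or vehicle. Survival of the treated group was divided by that of the vehicle-treated control group to give the ratio.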

## NC(=O)c1cn(C2OC(CO)C(O)C2O)c2ncnc(N)c12 (configuration not stated)
dose: 0.1 mg/kg/injection, schedule: Q01DX Z (ip), vehicle: carboxymethylcellulose (CMC)
  T/C: 123 % of control
dose: 0.12 mg/kg/injection, schedule: Q01DX009 (ip), vehicle: saline
  T/C: 118 % of control
dose: 0.16 mg/kg/injection, schedule: Q01DX009 (ip), vehicle: saline
  T/C: 119 % of control
dose: 0.16 mg/kg/injection, schedule: Q#A X034 (ip), vehicle: carboxymethylcellulose (CMC)
  T/C: 116 % of control
dose: 0.19 mg/kg/injection, schedule: Q01DX005 (ip), vehicle: saline
  T/C: 123 % of control
dose: 0.19 mg/kg/injection, schedule: Q01DX009 (ip), vehicle: saline
  T/C: 121 % of control
dose: 0.2 mg/kg/injection, schedule: Q01DX Z (ip), vehicle: carboxymethylcellulose (CMC)
  T/C: 121 % of control
dose: 0.25 mg/kg/injection, schedule: Q01DX001 (sc), vehicle: saline
  T/C: 100 % of control
dose: 0.32 mg/kg/injection, schedule: Q01DX017 (ip), vehicle: carboxymethylcellulose (CMC)
  T/C: 94 % of control
dose: 0.32 mg/kg/injection, schedule: Q02DX009 (ip), vehicle: carboxymethylcellulose (CMC)
  T/C: 100 % of control
dose: 0.32 mg/kg/injection, schedule: Q04DX005 (ip), vehicle: carboxymethylcellulose (CMC)
  T/C: 104 % of control
dose: 0.32 mg/kg/injection, schedule: Q#A X034 (ip), vehicle: carboxymethylcellulose (CMC)
  T/C: 104 % of control
dose: 0.37 mg/kg/injection, schedule: Q01DX009 (ip), vehicle: Klucel (hydroxypropylcellulose) (HPC)
  T/C: 107 % of control
dose: 0.39 mg/kg/injection, schedule: Q01DX009 (ip), vehicle: saline
  T/C: 108 % of control
dose: 0.5 mg/kg/injection, schedule: Q01DX001 (sc), vehicle: saline
  T/C: 98 % of control
dose: 0.5 mg/kg/injection, schedule: Q01DX005 (ip), vehicle: saline
  T/C: 157 % of control
dose: 0.5 mg/kg/injection, schedule: Q01DX010 (oral), vehicle: saline
  T/C: 97 % of control
dose: 0.5 mg/kg/injection, schedule: Q## X003 (ip), vehicle: saline
  T/C: 114 % of control
dose: 0.62 mg/kg/injection, schedule: Q01DX001 (ip), vehicle: carboxymethylcellulose (CMC)
  T/C: 94 % of control
dose: 0.62 mg/kg/injection, schedule: Q01DX017 (ip), vehicle: carboxymethylcellulose (CMC)
  T/C: 105 % of control
dose: 0.62 mg/kg/injection, schedule: Q02DX009 (ip), vehicle: carboxymethylcellulose (CMC)
  T/C: 101 % of control
dose: 0.62 mg/kg/injection, schedule: Q04DX005 (ip), vehicle: carboxymethylcellulose (CMC)
  T/C: 113 % of control
dose: 0.62 mg/kg/injection, schedule: Q08DX003 (ip), vehicle: carboxymethylcellulose (CMC)
  T/C: 105 % of control
dose: 0.62 mg/kg/injection, schedule: Q#A X034 (ip), vehicle: carboxymethylcellulose (CMC)
  T/C: 101 % of control
dose: 0.65 mg/kg/injection, schedule: Q01DX001 (ip), vehicle: water
  T/C: 122 % of control
dose: 0.75 mg/kg/injection, schedule: Q01DX009 (ip), vehicle: saline
  T/C: 112 % of control and 117 % of control
dose: 0.78 mg/kg/injection, schedule: Q01DX009 (ip), vehicle: saline
  T/C: 108 % of control and 123 % of control
dose: 0.8 mg/kg/injection, schedule: Q01DX Z (ip), vehicle: water
  T/C: 123 % of control
dose: 1.0 mg/kg/injection, schedule: Q01DX001 (sc), vehicle: saline
  T/C: 102 % of control and 104 % of control
dose: 1.0 mg/kg/injection, schedule: Q01DX005 (ip), vehicle: saline
  T/C: 165 % of control
dose: 1.0 mg/kg/injection, schedule: Q01DX006 (iv), vehicle: saline
  T/C: 111 % of control
dose: 1.0 mg/kg/injection, schedule: Q01DX010 (oral), vehicle: saline
  T/C: 103 % of control
dose: 1.0 mg/kg/injection, schedule: Q01DX Z (im), vehicle: saline
  T/C: 109 % of control
dose: 1.0 mg/kg/injection, schedule: Q01DX Z (ip), vehicle: carboxymethylcellulose (CMC)
  T/C: 120 % of control
dose: 1.0 mg/kg/injection, schedule: Q03DX005 (ip), vehicle: other
  T/C: 162 % of control
dose: 1.0 mg/kg/injection, schedule: Q## X008 (ip), vehicle: saline
  T/C: 150 % of control
dose: 1.25 mg/kg/injection, schedule: Q01DX001 (ip), vehicle: carboxymethylcellulose (CMC)
  T/C: 119 % of control
dose: 1.25 mg/kg/injection, schedule: Q01DX017 (ip), vehicle: carboxymethylcellulose (CMC)
  T/C: 89 % of control
dose: 1.25 mg/kg/injection, schedule: Q02DX009 (ip), vehicle: carboxymethylcellulose (CMC)
  T/C: 103 % of control
dose: 1.25 mg/kg/injection, schedule: Q04DX005 (ip), vehicle: carboxymethylcellulose (CMC)
  T/C: 110 % of control
dose: 1.25 mg/kg/injection, schedule: Q08DX003 (ip), vehicle: carboxymethylcellulose (CMC)
  T/C: 106 % of control
dose: 1.5 mg/kg/injection, schedule: Q01DX009 (ip), vehicle: Klucel (hydroxypropylcellulose) (HPC)
  T/C: 98 % of control
